# From patent publication US7414042B2, “Method and composition for selectively inhibiting melanoma” (The Board of Trustees of The University of Illinois, priority 1995, dated 2008)
# Read-outs that look alike come from different tables or passages of the source.
# Experiments:
# [1] = tested on: human melanoma and nonmelanoma cancer cell lines; assay: Cytotoxicity profile across the panel of human cancer cell lines; details: Table 1 panel
# Protocol: (§2) In the following Table 1, the extracted betulinic acid and the other pure compounds were tested for cycotoxity against the following cultured human cell lines: A431 (squamous cells), BC-1 (breast), COL-2 (colon), HT-1080 (sarcoma), KB (human oral epidermoid carcinoma), LNCaP (prostate), LU-1 (lung), MEL-2 (melanoma), U373 (glioma) and ZR-75-1 (breast).
# (§3) Cytotoxicity of the crude extracts and purified compounds was determined in a number of cultured human cancer cell lines. The cells were cultured in appropriate media and under standard conditions. To maintain logarithmic growth, the media were changed 24 hours prior to cytotoxic assays. On the day of the assay, the cells were harvested by trypsinization, counted, diluted in media, and added to 96-well plates containing test compounds dissolved in DMSO; the final DMSO concentration was 0.05%.
# (§4) The plates were incubated for three days. Following the incubation period, the cells were fixed and stained with sulforhodamine B (SRB) dye. The bound dye was liberated with Tris base, and the OD515 was measured on an ELISA reader. The growth of the betulinic acid-treated cells was determined by the OD515 values, and the growth was compared to the OD515 values of DMSO-treated control cells. Dose response studies were performed to generate ED50 values.
# (§5) The biological evaluation of the derivatives focused on the activity against human melanoma cell lines. In particular, the following betulinic acid derivatives were prepared and tested for cytotoxicity profile against human melanoma cell lines and against a number of selected nonmelanoma cell lines.
# [2] = tested on: MEL-2 (melanoma); assay: Cytotoxicity against cultured human melanoma cells (SRB); format: cell-based; details: for IC50: Homo sapiens, MEL2, 72 h, three days incubation, SRB, Table 1 and text, read-out: ED50 MEL-2; for ED50 (Std. Dev.) MEL-2: derivatives, Tables 2-6
# Protocol: (§1) The plates were incubated for three days. […] Dose response studies were performed to generate ED50 values.
# [3] = tested on: HT-1080 (sarcoma); assay: Cytotoxicity against cultured human cancer cells (SRB); format: cell-based; details: Homo sapiens, HT-1080, 72 h, three days incubation, read-out: ED50 HT-1080
# Protocol: as §1
# [4] = tested on: BC-1 (breast); assay: as above; format: cell-based; details: Homo sapiens, 72 h, read-out: ED50 BC-1
# Protocol: as §1
# [5] = tested on: LU-1 (lung); assay: as above; format: cell-based; details: Homo sapiens, 72 h, three days incubation, read-out: ED50 LU-1
# Protocol: as §1
# [6] = tested on: ZR-75-1 (breast); assay: as above; format: cell-based; details: Homo sapiens, ZR-75-1, 72 h, read-out: ED50 ZR 75-1
# Protocol: as §1
# [7] = tested on: KB (human oral epidermoid carcinoma); assay: as above; format: cell-based; details: for IC50: Homo sapiens, 72 h, three days incubation, SRB, Table 1, read-out: ED50 KB; for ED50 (Std. Dev.) KB: derivatives, Tables 2-6
# Protocol: as §1
# [8] = tested on: COL-2 (colon); assay: as above; format: cell-based; details: Homo sapiens, Col2, 72 h, read-out: ED50 COL-2
# Protocol: as §1
# [9] = tested on: LNCaP (prostate); assay: as above; format: cell-based; details: Homo sapiens, LNCaP, 72 h, read-out: ED50 LNCaP
# Protocol: as §1
# [10] = tested on: A431 (squamous cells); assay: as above; format: cell-based; details: Homo sapiens, A-431, 72 h, read-out: ED50 A431
# Protocol: as §1
# [11] = tested on: U373 (glioma); assay: as above; format: cell-based; details: Homo sapiens, U373 MG, 72 h, read-out: ED50 U373
# Protocol: as §1
# [12] = tested on: LOX melanoma cell line; assay: Cytotoxicity of betulinic acid derivatives; format: cell-based, human; details: Tables 2-6
# Protocol: as §1
# [13] = tested on: human melanoma and nonmelanoma cancer cell lines
# Protocol: as §2, §3, §4, §5
# [14] = tested on: MALE-3M melanoma cell line; assay: Cytotoxicity of betulinic acid derivatives; format: cell-based, human; details: Tables 2-6
# Protocol: as §1
# [15] = tested on: MEL-6 melanoma cell line; assay: Cytotoxicity of betulinic acid derivatives; format: cell-based, human; details: Tables 2-6
# Protocol: as §1
# [16] = tested on: MEL-8 melanoma cell line; assay: Cytotoxicity of betulinic acid derivatives; format: cell-based, human; details: Tables 2-6
# Protocol: as §1
Structure (SMILES),"cytotoxic activity profile, cell-type selectivity [1]",IC50 [2],ED50 (Std. Dev.) MEL-2 [2],ED50 (Std. Dev.) LOX [12],ED50 (Std. Dev.) KB [7],cytotoxicity and selectivity compared with betulinic acid or the corresponding analog [13],ED50 (Std. Dev.) MALE-3M [14],ED50 (Std. Dev.) MEL-6 [15],ED50 (Std. Dev.) MEL-8 [16],also measured
"CC[C@]1(O)C[C@@H]2CN(CCc3c([nH]c4ccccc34)[C@@](C(=O)OC)(c3cc4c(cc3OC)N(C)[C@H]3[C@@](O)(C(=O)OC)[C@H](OC(C)=O)[C@]5(CC)C=CCN6CC[C@]43[C@@H]65)C2)C1 [Vinbiastine, vinblastine]","relatively intense, nonselective cytotoxic activity",0.01 µg/mL,,,,,,,,"IC50 [3]: 0.02 µg/mL; IC50 ([4]; three days incubation, SRB): 0.06 µg/mL; IC50 [5]: 0.02 µg/mL; IC50 ([6]; three days incubation, SRB): 0.3 µg/mL; IC50 [7]: 0.04 µg/mL; IC50 ([8]; three days incubation, SRB): 0.01 µg/mL; IC50 ([9]; three days incubation, SRB): 0.1 µg/mL; IC50 ([10]; three days incubation, SRB): 0.05 µg/mL; IC50 ([11]; three days incubation, SRB): 1.1 µg/mL"
"C=C(C)[C@@H]1CC[C@]2(CO)CC[C@]3(C)[C@H](CC[C@@H]4[C@@]5(C)CC[C@H](O)C(C)(C)[C@@H]5CC[C@]43C)[C@@H]12 [Compound 12, lup-20(29)-ene-3β,28-diol]",,,>20 µg/mL,>20 µg/mL,>20 µg/mL,,,,,
"C=C(C)[C@@H]1CC[C@]2(C(=O)OC)CC[C@]3(C)[C@H](CC[C@@H]4[C@@]5(C)CC[C@H](O)C(C)(C)[C@@H]5CC[C@]43C)[C@@H]12 [Compound 14, Methyl betulinate]",,,8.3 µg/mL,12.5 µg/mL,11.8 µg/mL,,,,,
C=C(C)C1CCC2(C(=O)O)CCC3(C)C(CCC4C5(C)CCC(=NOC)C(C)(C)C5CCC43C)C12 (centres unmarked) [Compound 13],,,8.3 µg/mL,>20 µg/mL,4.3 µg/mL,decrease in selective cytotoxicity,,,,
"C=C(C)[C@@H]1CC[C@]2(C(=O)O)CC[C@]3(C)[C@H](CC[C@@H]4[C@@]5(C)CCC(=O)C(C)(C)[C@@H]5CC[C@]43C)[C@@H]12 [Compound 8, Betulonic acid]",,,0.9 (0.8) μg/mL,6.9 µg/mL,2.5 µg/mL,decrease in selective cytotoxicity,20 μg/mL,15.3 (3.4) μg/mL,0.4 (0.1) μg/mL,
C=C(C)C1CCC2(C=O)CCC3(C)C(CCC4C5(C)CCC(=O)C(C)(C)C5CCC43C)C12 (centres unmarked) [Compound 1],,,7.4 (2.4) μg/mL,18.5 µg/mL,12.9 µg/mL,,>20 μg/mL,>20 µg/mL,3.2 (1.2) μg/mL,
C=C(C)C1CCC2(C=NO)CCC3(C)C(CCC4C5(C)CCC(=NO)C(C)(C)C5CCC43C)C12 (centres unmarked) [Compound 4],,,2.2 (0.7) μg/mL,4.1 µg/mL,3.3 µg/mL,"improved the cytotoxicity profile, although selectivity was lost",17.5 μg/mL,11.9 (2.7) μg/mL,1.4 (0.6) μg/mL,
"CC(=O)O[C@H]1C(=O)[C@@]2(C)[C@H]([C@H](OC(=O)c3ccccc3)[C@]3(O)C[C@H](OC(=O)[C@H](O)[C@@H](NC(=O)c4ccccc4)c4ccccc4)C(C)=C1C3(C)C)[C@]1(OC(C)=O)CO[C@@H]1C[C@@H]2O [Taxol, paclitaxel]","relatively intense, nonselective cytotoxic activity",0.06 µg/mL,,,,,,,,"IC50 ([4]; three days incubation, SRB): 0.02 µg/mL; IC50 ([6]; three days incubation, SRB): 0.02 µg/mL; IC50 [7]: 0.02 µg/mL; IC50 ([8]; three days incubation, SRB): 0.02 µg/mL; IC50 ([9]; three days incubation, SRB): 0.02 µg/mL; IC50 ([11]; three days incubation, SRB): 0.008 µg/mL"
"CC(C)[C@@H]1CC[C@]2(C(=O)O)CC[C@]3(C)C(CCC4[C@@]5(C)CC[C@H](O)C(C)(C)C5CC[C@]43C)C12 (some centres unmarked) [Compound 11, Dihydrobetulinic acid]",,,5.8 µg/mL,>20 µg/mL,>20 µg/mL,less active,,,,
CC(C)C1CCC2(C(=O)O)CCC3(C)C(CCC4C5(C)CCC(=NO)C(C)(C)C5CCC43C)C12 (centres unmarked) [Compound 7],,,2.2 (0.3) μg/mL,,,comparable biological activity,13.9 μg/mL,13.1 (1.1) μg/mL,1.6 (1.1) μg/mL,
COC(=O)C[C@](O)(CCCC(C)(C)O)C(=O)O[C@@H]1C(OC)=C[C@]23CCCN2CCc2cc4c(cc2[C@H]13)OCO4 [Homoharringtonine],"relatively intense, nonselective cytotoxic activity",0.04 µg/mL,,,,,,,,"IC50 [3]: 0.01 µg/mL; IC50 ([4]; three days incubation, SRB): 0.03 µg/mL; IC50 [5]: 0.03 µg/mL; IC50 ([6]; three days incubation, SRB): 0.06 µg/mL; IC50 ([8]; three days incubation, SRB): 0.1 µg/mL; IC50 ([9]; three days incubation, SRB): 0.03 µg/mL; IC50 ([10]; three days incubation, SRB): 0.02 µg/mL; IC50 ([11]; three days incubation, SRB): 0.2 µg/mL"
COc1cc([C@@H]2c3cc4c(cc3[C@H](O)[C@H]3COC(=O)[C@H]23)OCO4)cc(OC)c1OC [Podophyllotoxin],"relatively intense, nonselective cytotoxic activity",0.003 µg/mL,,,,,,,,IC50 [4]: 0.03 µg/mL; IC50 [6]: 0.4 µg/mL; IC50 [7]: 0.08 µg/mL; IC50 [8]: 0.005 µg/mL; IC50 [9]: 0.04 µg/mL; IC50 [10]: 0.03 µg/mL; IC50 [11]: 0.004 µg/mL
C=C(C)C1CCC2(C=NOC)CCC3(C)C(CCC4C5(C)CCC(=NOC)C(C)(C)C5CCC43C)C12 (centres unmarked) [Compound 3],,,>20 µg/mL,>20 µg/mL,20 µg/mL,,>20 μg/mL,>20 µg/mL,>20 µg/mL,
CC[C@]1(O)C[C@H]2CN(CCc3c([nH]c4ccccc34)[C@@](C(=O)OC)(c3cc4c(cc3OC)N(C=O)[C@H]3[C@@](O)(C(=O)OC)[C@H](OC(C)=O)[C@]5(CC)C=CCN6CC[C@]43[C@@H]65)C2)C1 [Vincristine],"relatively intense, nonselective cytotoxic activity",0.02 µg/mL,,,,,,,,"IC50 [3]: 0.02 µg/mL; IC50 ([4]; three days incubation, SRB): 0.01 µg/mL; IC50 [5]: 0.05 µg/mL; IC50 ([6]; three days incubation, SRB): 0.4 µg/mL; IC50 ([8]; three days incubation, SRB): 0.02 µg/mL; IC50 ([9]; three days incubation, SRB): 0.1 µg/mL; IC50 ([10]; three days incubation, SRB): 0.01 µg/mL; IC50 ([11]; three days incubation, SRB): 0.06 µg/mL"
"CC(C)[C@@H]1CC[C@]2(C(=O)O)CC[C@]3(C)[C@H](CC[C@@H]4[C@@]5(C)CCC(=O)C(C)(C)[C@@H]5CC[C@]43C)[C@@H]12 [Compound 6, Dihydrobetulonic acid]",,,0.7 (0.6) μg/mL,,,comparable biological activity,20 μg/mL,10.8 (2.6) μg/mL,0.9 (0.4) μg/mL,
CON=C1CCC2(C)C(CCC3(C)C2CCC2C4C(C(C)C)CCC4(C(=O)O)CCC23C)C1(C)C (centres unmarked) [Compound 5],,,>20 µg/mL,,,less active,>20 μg/mL,>20 µg/mL,>20 µg/mL,
CC[C@@]1(O)C(=O)OCc2c1cc1n(c2=O)Cc2cc3ccccc3nc2-1 [Camptothecin],"relatively intense, nonselective cytotoxic activity",0.02 µg/mL,,,,,,,,"IC50 [3]: 0.01 µg/mL; IC50 ([4]; three days incubation, SRB): 0.07 µg/mL; IC50 ([6]; three days incubation, SRB): 0.001 µg/mL; IC50 ([8]; three days incubation, SRB): 0.005 µg/mL; IC50 ([9]; three days incubation, SRB): 0.006 µg/mL"
"C=C(C)[C@@H]1CC[C@]2(C)CC[C@]3(C)[C@H](CC[C@@H]4[C@@]5(C)CC[C@H](OC(=O)c6ccccc6)C(C)(C)[C@@H]5CC[C@]43C)[C@@H]12 [Compound 16, Lupeol benzoate]",,,>20 µg/mL,>20 µg/mL,>20 µg/mL,,,,,
"C=C(C)[C@@H]1CC[C@]2(C)CC[C@]3(C)[C@H](CC[C@@H]4[C@@]5(C)CC[C@H](O)C(C)(C)[C@@H]5CC[C@]43C)[C@@H]12 [Compound 15, Lupeol]",,,17.6 µg/mL,15.6 µg/mL,>20 µg/mL,,,,,
